Where two headings read alike, the source gives them in different places.

One may read the AC50 as the midpoint of the concentration-response curve, whichever way the signal moves. As usually defined, the Emax is the greatest response seen or fitted, relative to the assay's reference. As usually defined, the CC50 is the concentration giving 50% cytotoxicity.

Series [1] concerns thyroid hormone receptor (endogenous TRα and TRβ). The experiment in a line: GH3-TRE-Ag-Followup confirmation (TOX21_TR_LUC_GH3_Agonist_Followup, aeid 2226). The format is cell-based, rat. Conditions: for GH3-TRE-Ag-Followup hitc: hit call from tcpl.
For series [2], the target named is T1, human RXRα (Homo sapiens, UniProt P19793).
T1 construct: host or cells: GeneBLAzer UAS-bla HEK 293T
T1 sequence (P19793 227-458 limits assumed): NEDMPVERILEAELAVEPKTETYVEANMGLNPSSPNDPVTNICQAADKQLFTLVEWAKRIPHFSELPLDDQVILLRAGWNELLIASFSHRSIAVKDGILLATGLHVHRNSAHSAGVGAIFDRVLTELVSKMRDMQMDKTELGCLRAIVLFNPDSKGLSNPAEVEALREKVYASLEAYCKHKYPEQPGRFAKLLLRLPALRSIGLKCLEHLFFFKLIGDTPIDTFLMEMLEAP
The experiment in a line: RXRa-bla-Ag mammalian one-hybrid beta-lactamase assay (TOX21_TR_RXR_BLA_Agonist_Followup_ratio, aeid 2253). Format: cell-based. Conditions: for tr-followup-rxr-bla-agonist-1 hitc: hit call from tcpl; for Emax: read-out: EMax (% of Control) tr-followup-rxr-bla-agonist-1; for AC50: read-out: tr-followup-rxr-bla-agonist-1 AC50.

For series [3], the target named is T2, human TRβ ligand-binding domain (Homo sapiens, UniProt P10828).
T2 sequence (P10828 217-461 limits assumed): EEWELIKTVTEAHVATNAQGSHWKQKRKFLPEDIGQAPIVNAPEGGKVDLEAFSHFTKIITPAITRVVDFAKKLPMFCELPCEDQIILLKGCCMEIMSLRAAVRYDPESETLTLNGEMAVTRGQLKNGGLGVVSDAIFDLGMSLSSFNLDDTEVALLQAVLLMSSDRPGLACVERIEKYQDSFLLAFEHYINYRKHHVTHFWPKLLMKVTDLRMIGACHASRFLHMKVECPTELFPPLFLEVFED
The experiment in a line: TRb-bla agonist mammalian one-hybrid beta-lactamase assay (TOX21_TRB_BLA_Agonist_Followup_ratio, aeid 2236). The format is cell-based. Also on record: host or cells: GeneBLAzer UAS-bla HEK 293T. Conditions: for TRb-bla hitc: hit call from tcpl; for Emax: read-out: EMax (% of Control) trb-bla-agonist-followup-1.

Series [4] relates to thyroid hormone receptor (TR). The experiment in a line: Classification of TR actives across characterization assays (TR-Ag / RXR-Ag; TR model binary). Also on record: key to Categorization Code: FP, false positive. Conditions: TR agonist characterization. From the text:
Active rate comparison between receptors. […]; [Kleinstreuer et al. 2017]). We first removed chemicals classified as pharmaceuticals because these sets of chemicals are biased toward drugs targeting estrogen receptors and androgen receptors. […]. For TR, we cross-referenced these same chemicals for testing against TR and used candidate chemicals in Tables 2 and 3 to define active rates.
Complete results from both GH3-TRE qHTS agonist, antagonist, and viability mode for the 8,305 compounds are provided in Excel Table S2. […]. […]. Together with some potential false negatives, these chemicals, totaling 84 in all, were screened for activity in a series of assays for confirmation in the GH3-TRE-Ag assay; specificity screening in the TRβ-UAS-bla HEK 293T and RXRα-UAS-bla HEK 293T mammalian one-hybrid assays; viability assays for the HEK293T parental cell line; and orthogonal screening in two TR:coactivator recruitment assays, TRa-coa and TRb-coa. […].

Series [5] deals with GH3-TRE-Luc cell line. The experiment in a line: GH3-TRE-Via cell viability, CellTiter-Fluor (TOX21_TR_LUC_GH3_Antagonist_viability, aeid 805). Conditions: for AC50: Rattus norvegicus, read-out: TR_LUC_GH3_Antagonist_viability AC50 (uM); for TR_LUC_GH3_Antagonist_viability hitc: hit call from tcpl.
Series [6] deals with T2, human TRβ ligand-binding domain. The experiment in a line: TRb-coa LanthaScreen TR-FRET coactivator (SRC-2 peptide) recruitment, agonist (TOX21_TRB_COA_Agonist_Followup_ratio, aeid 2244). The format is biochemical. Also on record: host or cells: GeneBLAzer UAS-bla HEK 293T. Conditions: for TRb-coa hitc: hit call from tcpl; for Emax: read-out: EMax (% of Control) trb-coa-agonist-followup-1.

Series [7] deals with T3, TRα ligand-binding domain (Homo sapiens, UniProt P10827).
T3 construct: the receptor LBDs expressed as glutathione S-transferase (GST) fusion proteins; purchased
The experiment in a line: TRa-coa LanthaScreen TR-FRET coactivator (SRC-2 peptide) recruitment, agonist (TOX21_TRA_COA_Agonist_Followup_ratio, aeid 2230). Format: biochemical. Conditions: for TRa-coa hitc: hit call from tcpl; for Emax: read-out: EMax (% of Control) tra-coa-agonist-followup-1.

Series [8] is described as follows: in vitro. Conditions: rat, gh3-tre-luc cells, AC50 (uM) modified / 1000.
Series [9] relates to thyroid hormone receptor (endogenous TRα and TRβ). The experiment in a line: GH3-TRE-Ag primary qHTS, luciferase reporter, agonist mode (TOX21_TR_LUC_GH3_Agonist, aeid 803). The format is cell-based, rat. Conditions: for GH3-TRE-Ag AC50 hitc: hit call from tcpl. (In qHTS, concentration-response curves come from the screen itself.)
Series [10] deals with Tox21 cell viability assays (different cell types). The experiment in a line: Global cytotoxicity: eighteen Tox21 cell viability assays. Format: cell-based. Conditions: for GLOBAL CYTOTOXICITY cytotox.number_Active: # active of 18 total Tox21 viability assays.

T3 sequence (P10827 163-410 isoform P10827-2 limits assumed, other chains not shown): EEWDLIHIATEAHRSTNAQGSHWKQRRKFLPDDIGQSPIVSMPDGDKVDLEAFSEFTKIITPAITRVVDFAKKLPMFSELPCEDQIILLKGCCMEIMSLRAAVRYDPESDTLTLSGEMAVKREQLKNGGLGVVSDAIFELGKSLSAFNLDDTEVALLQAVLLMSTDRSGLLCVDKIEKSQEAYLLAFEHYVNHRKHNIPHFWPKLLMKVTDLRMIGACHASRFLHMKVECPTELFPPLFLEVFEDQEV

`C=C(NC(=O)C(=C)NC(=O)c1csc(C2=N[C@@H]3c4csc(n4)[C@H]4NC(=O)c5csc(n5)[C@H]([C@](C)(O)[C@@H](C)O)NC(=O)[C@H]5CSC(=N5)/C(=C/C)NC(=O)[C@H]([C@@H](C)O)NC(=O)c5csc(n5)[C@]3(CC2)NC(=O)[C@H](C)NC(=O)C(=C)NC(=O)[C@H](C)NC(=O)[C@H]([C@@H](C)CC)N[C@@H]2C=Cc3c([C@H](C)O)cc(nc3[C@H]2O)C(=O)O[C@@H]4C)n1)C(N)=O` [Thiostrepton]: in series [1], the “EMax (% of Control) gh3-tre-agonist-followup-1_agonist” value is reported as 28.2 % of Control. The same compound yielded a GH3-TRE-Ag-Followup hitc in series [1] of 1. Besides, the AC50 in series [1] (read-out: GH3-TRE-Ag-Followup AC50) was 5.47 µM; in series [2], more than 92 µM; in series [3] (agonist, read-out: TRb-bla AC50), more than 92 µM; in series [5], more than 92 µM; in [6] (agonist, read-out: TRb-coa AC50), more than 92 µM; in [7] (agonist, read-out: TRa-coa AC50) it was more than 92 µM. The tr-followup-rxr-bla-agonist-1 hitc in [2] is recorded as 0. Further, the Emax is 17.2% in [2], 4.1% in [3], -0.224% in [6] and -0.6% in [7]. This compound showed a TRb-bla hitc in [3] (agonist) of 0. For the same compound, in series [4], the “Categorization Code” value is “About 20% efficacy in RXR and TR; hitc is inconsistent; promiscious NR activity”. Also, the TR_LUC_GH3_Antagonist_viability hitc in series [5] amounted to 0. The compound also registered a TRb-coa hitc in series [6] (agonist) of 0. In addition, the TRa-coa hitc in series [7] (agonist) is recorded as 0. In series [8], this compound had a CC50 at 24 h of 6.56 µM. Besides, in [9], the “EMax (% of Control) gh3-tre-agonist” value is 15.2 % of Control. Further, in series [9], the “GH3-TRE-Ag AC50 hitc” value worked out at 0. For the same compound, the “GLOBAL CYTOTOXICITY cytotox.median” value in series [10] was more than 92. The “GLOBAL CYTOTOXICITY cytotox.number_Active” value in series [10] was 0.

With `O=C(Cl)OCCOCCOC(=O)Cl` [Diethlylene glycol bis chloroformate], in series [1], the “EMax (% of Control) gh3-tre-agonist-followup-1_agonist” value is recorded as 21.1 % of Control and the GH3-TRE-Ag-Followup hitc came out at 0. In series [2], the tr-followup-rxr-bla-agonist-1 hitc is on record as 0, the Emax was -1.9% and the AC50 is more than 92 µM. Besides, in [3], the AC50 was more than 92 µM and the Emax was 6.2%. Also, in [3] (agonist), the TRb-bla hitc is listed as 0. Further, the “Categorization Code” value in series [4] is listed as “FP”. Moreover, in series [5], the AC50 was more than 92 µM and the TR_LUC_GH3_Antagonist_viability hitc is 0. For the same compound, in series [6], the AC50 was more than 92 µM and the Emax was -0.349%. Also, the TRb-coa hitc in [6] (agonist) was 0. In series [7], the AC50 is more than 92 µM and the Emax was -0.217%. Further, the TRa-coa hitc in [7] (agonist) was 0. Further, in series [9], the “EMax (% of Control) gh3-tre-agonist” value was 19.2 % of Control and the “GH3-TRE-Ag AC50 hitc” value was found to be 1. Moreover, the AC50 in [9] (read-out: GH3-TRE-Ag AC50) was found to be 5.6 µM. The “GLOBAL CYTOTOXICITY cytotox.number_Active” value in series [10] is recorded as 0. For the same compound, the “GLOBAL CYTOTOXICITY cytotox.median” value in series [10] (median over Tox21 viability assays) was more than 92.

For the origin of these results see publication PMC6792352, “Limited Chemical Structural Diversity Found to Modulate Thyroid Hormone Receptor in the Tox21 Chemical Library” (Environmental Health Perspectives, 2019).
